From patent US20210330713A1, “HUMAN HEPATOCYTES AND USES THEREOF” (ACCELERATED BIOSCIENCES CORP., priority 2014, published 2021)
Entries after “also recorded” stand apart in the source; their conditions may differ. Values belong to the compound of their own block, whether it stands above or below them.

Assays:
[1] = cited from earlier work
FGF receptor (FGFR) = molecular target: T1, FGF receptor (FGFR) (Homo sapiens, UniProt P11362); test: FGFR inhibitor block of bFGF-induced PI3K by immunoblotting; format: cell-based; details: hTS cells, bFGF 10 ng/ml
T1 construct: endogenous in cells; host or cells: hTS cells (human trophoblast stem cells)
Description: (§1) For immunoblotting assay, cells were harvested into RIPA lysis solution (Millipore, Billerica, Mass.) supplemented with protease and phosphatase inhibitors (Roche). After electrophoresis of 30 μg lysates on polyacrylamide gels, electroblotting onto PDVF membranes (Millipore) was performed. After blocked by 5% non-fat milk in PBS at room temperature (1 hr), target protein was detected by using primary antibody. All membranes were incubated with chemiluminescent (Millipore) and imaging was captured by the ChemiDoc XRS system (Bio-RAD). Data were analyzed by AlphaEaseFC (version 4.0.0) system. For IP assay, Cell lysates of bFGF-treated hTS cells were collected. By incubation with protein G-agarose (Millipore) for 30 min, total protein (100 μg) was treated with specific primary antibody overnight listed in Table 1. After treating with protein G-agarose beads (2 hr), sample was washed three times with RIPA lysis buffer (Millipore), following by adding with protein loading dye and boiled for 5 min. […]
(§2) For immunoblotting assay, cells were harvested into RIPA lysis solution (Millipore, Billerica, Mass.) supplemented with protease and phosphatase inhibitors (Roche). […] After blocked by 5% non-fat milk in PBS at room temperature (1 hr), target protein was detected by using primary antibody. […] Data were analyzed by AlphaEaseFC (version 4.0.0) system. […]

CYP7A1 = details: hypercholesterolemic hamsters; cited from earlier work
hTS cells [2] = test: Hepatocytic differentiation of hTS cells after DE stage; details: dexamethasone 0.1 μM and oncostatin M 10 ng/ml added at 8 hr of bFGF induction, 4 days
CYP3A4 = test: Functional cytochrome p450 assay by qPCR, CYP3A4; details: hepatocyte-like cells, rifampicin 25 μM + itraconazole 25 μM, 24 hr
hTS cells [3] = test: bFGF induction of DE differentiation in hTS cells, DE-associated markers over time; format: cell-based, human; details: bFGF 10 ng/ml
Description: For immunoblotting assay, cells were harvested into RIPA lysis solution (Millipore, Billerica, Mass.) supplemented with protease and phosphatase inhibitors (Roche). After electrophoresis of 30 μg lysates on polyacrylamide gels, electroblotting onto PDVF membranes (Millipore) was performed. After blocked by 5% non-fat milk in PBS at room temperature (1 hr), target protein was detected by using primary antibody. All membranes were incubated with chemiluminescent (Millipore) and imaging was captured by the ChemiDoc XRS system (Bio-RAD). Data were analyzed by AlphaEaseFC (version 4.0.0) system. For IP assay, Cell lysates of bFGF-treated hTS cells were collected. By incubation with protein G-agarose (Millipore) for 30 min, total protein (100 μg) was treated with specific primary antibody overnight listed in Table 1. After treating with protein G-agarose beads (2 hr), sample was washed three times with RIPA lysis buffer (Millipore), following by adding with protein loading dye and boiled for 5 min. The sample was resolved by 8% SDS-PAGE and subjected to immunoblotting analysis.
(§3) Slides with cell culture was fixed for 30 min at room temperature in 95% (v/v) ethanol, washed three times in PBS and incubated with blocking buffer PBS containing 0.1% (wt/v) Triton X-100 (Sigma) and 5% (v/v) normal donkey serum (Millipore) for 60 min. Primary and secondary antibodies were diluted in blocking buffer. Primary antibody was incubated. After incubation with specific primary antibody in PBS at 4° C. (24 hr) or room temperature (2 hr), appropriate fluorescein isothiocyante (FITC, Invitrogen) or ALEXA FLUOR® 488, 594, and 647 (Invitrogen) or Dylight 488 and 594 (BioLegend) conjugated secondary antibody was added at room temperature (1 hr). After DAPI staining of nucleus (5 min), incubation with secondary antibody (1 hr) at room temperature, and washes, sample was mounted with 50% glycerol. Images were captured by confocal laser scanning microscopy (LSM700; Zeiss Z1 or Olympus FluoView 1000 confocal laser scanning microscope) or TissueFAXS system (TissueQnostics GmbH, Vienna, Austria). Data were analyzed by TissueQuest software.
This study was approved by the Institutional Review Board on Human Subjects Research and Ethics Committees (KMUHIRB-20140071). […] For DE differentiation, cells were carried out by a conditioned a-MEM media containing 10% FBS, 2-mercaptoethanol (1 mM), nicotinamide (10 mM), and bFGF (10 ng/ml) for 8 hr, according to the empirical studies (data not shown). […] Cells were harvested at 4-7 days for assay as indicated. Determination of stage-specific differentiation of lineages depends on the hepatic cell-associated markers in liver development.
as §3, with “Briefly, slides” for “Slides”, “DYLIGHT®” for “Dylight”, “glycerol.” for “glycerol. Images were captured by confocal laser scanning microscopy (LSM700; Zeiss Z1 or Olympus FluoView 1000 confocal laser scanning microscope) or TissueFAXS system (TissueQnostics GmbH, Vienna, Austria). Data were analyzed by TissueQuest software.”

[4] = tested on: PI3K/AKT/CREB1 signaling pathway; test: bFGF-induced PI3K/AKT/CREB1 signaling by immunoblotting; format: cell-based, human; details: bFGF 10 ng/ml, 4 hr induction, hTS cells
Description: as §1, §2

miR-124a = miR-124a expression in hTS cells by qPCR; format: cell-based, human; details: bFGF induction, DE stage
Excerpt: U6 snRNA (RNU6B; Applied Biosystems) served as an endogenous control.

T1 sequence (P11362 22-822): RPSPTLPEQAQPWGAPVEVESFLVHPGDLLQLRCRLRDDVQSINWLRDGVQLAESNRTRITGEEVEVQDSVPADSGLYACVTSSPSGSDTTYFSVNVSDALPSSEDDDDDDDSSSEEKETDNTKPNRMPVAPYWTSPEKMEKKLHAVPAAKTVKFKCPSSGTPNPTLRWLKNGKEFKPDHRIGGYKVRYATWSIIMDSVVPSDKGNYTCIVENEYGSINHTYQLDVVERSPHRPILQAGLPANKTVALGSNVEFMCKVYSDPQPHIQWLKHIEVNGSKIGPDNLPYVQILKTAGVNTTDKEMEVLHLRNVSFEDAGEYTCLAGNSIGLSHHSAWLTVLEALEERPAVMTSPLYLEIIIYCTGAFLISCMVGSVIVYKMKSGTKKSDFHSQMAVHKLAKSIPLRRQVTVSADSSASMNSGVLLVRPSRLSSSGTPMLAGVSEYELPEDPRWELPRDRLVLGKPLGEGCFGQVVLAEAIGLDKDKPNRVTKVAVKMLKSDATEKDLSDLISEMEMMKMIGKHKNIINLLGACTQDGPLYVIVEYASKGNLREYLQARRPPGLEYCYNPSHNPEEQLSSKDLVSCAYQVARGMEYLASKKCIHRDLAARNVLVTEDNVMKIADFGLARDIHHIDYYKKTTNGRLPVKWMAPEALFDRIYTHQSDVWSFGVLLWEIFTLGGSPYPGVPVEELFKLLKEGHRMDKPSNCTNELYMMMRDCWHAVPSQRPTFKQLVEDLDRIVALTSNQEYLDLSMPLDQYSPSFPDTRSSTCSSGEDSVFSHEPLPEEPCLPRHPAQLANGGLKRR

Compound: ClC(Cl)(Cl)Cl [CCl4, carbon tetrachloride]
half-live in blood [1]: 24 h

bFGF-induced activation of PI3K (FGF receptor (FGFR)): block
Compound: COc1cc(OC)cc(-c2cc3cnc(N)nc3nc2NC(=O)NC(C)(C)C)c1 [PD166866]

Compound: CC(=O)c1c(O)cc(O)cc1O [THA]
CYP7A1 activity and mRNA expression (CYP7A1): promotes both CYP7A1 activity and mRNA expression
plasma cholesterol and triglyceride (CYP7A1): reduce both plasma cholesterol and triglyceride

Compound: C[C@@H]1C[C@H]2[C@@H]3CCC4=CC(=O)C=C[C@]4(C)[C@@]3(F)[C@@H](O)C[C@]2(C)[C@@]1(O)C(=O)CO [dexamethasone]
differentiation to hepatocyte-like cells expressing hepatic markers (hTS cells [2]): resulted in the differentiation of hepatocyte-like cells

inducer-induced CYP3A4 mRNA in response to inhibitor (CYP3A4): reduced
Compound: CCC(C)n1ncn(-c2ccc(N3CCN(c4ccc(OCC5COC(Cn6cncn6)(c6ccc(Cl)cc6Cl)O5)cc4)CC3)cc2)c1=O (stereo not shown) [itraconazole]

Compound: bFGF: basic fibroblast growth factor, used at 10 ng/ml to induce DE differentiation of hTS cells
SOX17 levels at peak (hTS cells [3]; 2 hr, immunoblotting): 1.5 fold
intensity of Mixl1, nadir lower than the native one (hTS cells [3]; 4 hr, TissueFAX analysis): ~50%
MIXL1 levels, nadir lower than the native one (hTS cells [3]; 4 hr, immunoblotting): ~50%
DE formation (hTS cells [3]; 8 hr induction): efficiently yield DE; also recorded: rapidly differentiate hTS cells to DE stage
FOXA2 highest levels (hTS cells [3]; 8 hr, immunoblotting): 3 fold
activation of the PI3K/AKT1/CREB1 signaling pathway [4]: induces activation
time of peak miR-124a expression (miR-124a): 4 h
